Test results: US12673070B2, “Treatment of sepsis and hypercytokinemia” (TX MEDIC AB, priority 2020, dated 2026)
“Also recorded” adds a separate entry of the source.

What was measured:
[1] = monoclonal antibodies neutralizing TNFα; cited from earlier work
[2] = system: human peripheral blood mononuclear cells (PBMCs); assay: Stimulated release of IL-6 from human PBMCs in vitro (ELISA), Example 1; format: cell-based; details: 24 hours
Experimental: PBMCs were isolated from healthy donors through Ficoll-Paque PLUS (GE Healthcare; 11778538) density centrifugation. PBMC were cultured at 2×10^5 cells/well in the absence (unstimulated phosphate-buffered saline (PBS) vehicle controls) or presence of stimulation (lipopolysaccharide (LPS), peptidoglycan, pokeweed mitogen, phytohemagglutinin-L (PHA-L), CpG+IL-15, or Cytostim) in the absence (vehicle) or presence of LMW-DS (ILB®, Tikomed AB, Viken, Sweden, WO 2016/076780) at three concentrations; 60 μg/ml, 200 μg/ml and 600 μg/ml for 24 hours at 37° C., 5% CO2. Following centrifugation, cell culture supernatants were removed and stored at −20° C. awaiting analysis for IL-6 by ELISA. Levels of IL-6 were quantified in the supernatant by ELISA (R&D systems; DY206) according to manufacturer's instructions.

human PBMCs = assay: Cytokine secretion from stimulated human PBMCs (5-plex Luminex), Example 3; format: cell-based; details: 24 hours; for stimulated secretion of IL-1β / stimulated secretion of IL-8 / stimulated secretion of TNFα: highest concentration of LMW-DS
Experimental: Example 1 investigated the ability of LMW-DS to modify the secretion of IL-6 from human PBMCs arising from the use of various stimuli. The present study performed a broader analysis of the cell culture supernatants arising from Example 1. Thus, peripheral blood mononuclear cells (PBMC) were isolated from healthy donors through Ficoll-Paque PLUS density centrifugation. The PBMC were cultured at 2×10^5 cells/well in the absence (unstimulated PBS vehicle controls) or presence of stimulation (LPS, peptidoglycan, pokeweed mitogen, PHA-L, CpG+IL-15, or Cytostim) in the absence (vehicle) or presence of LMW-DS (ILB®, Tikomed AB, Viken, Sweden, WO 2016/076780; three concentrations; 600 μg/ml, 200 μg/ml and 60 μg/ml) for 24 hours at 37° C., 5% CO2.
Accordingly, the treatments were as follows for each PBMC donor: • i. Vehicle • ii. Simulation • iii. Stimulation+LMW-DS (60 μg/ml) • iv. Stimulation+LMW-DS (200 μg/ml) • v. Stimulation+LMW-DS (600 μg/ml)
with each assessed in triplicate such that the total numbers of samples were: • 1. LPS; 165 samples (from 11 donors) • 2. Peptidoglycan from Bacillus subtilis; 90 samples (from 6 donors) • 3. PHA-L; 90 samples (from 6 donors) • 4. 0.2 μM CpG+IL-15; 90 samples (from 6 donors) • 5. 1.0 μM CpG+IL-15; 90 samples (from 6 donors) • 6. Pokeweed mitogen; 90 samples (from 6 donors) • 7. 10 μl/ml Cytostim; 90 samples (from 6 donors) • 8. 30 μl/ml Cytostim; 90 samples (from 6 donors) • Total number of supernatant samples from all stimulations (all cell types)=795
Following treatment, cell culture supernatants were removed, centrifuged and stored at −20° C. before thawing for multiplex analysis of various cytokines using the 5-plex human magnetic Luminex assay from R&D systems (Cat. No. LXSAHM-05). Luminex analysis was carried out exactly following manufacturer's protocols.

IL-6 = assay: Serum IL-6 in MND/ALS patients treated with LMW-DS (Luminex), Example 4; format: in vivo, human; details: 8 ALS patients; weekly 1.0 mg/kg s.c.; measured at 10 weeks of treatment
Excerpt: Serum samples were taken from Motor Neuron Disease (MND)/Amyotrophic Lateral Sclerosis (ALS) patients in a clinical trial (EudraCT Number: 2018-000668-28) prior to and 5, 10 and 24 weeks following treatment with LMW-DS (ILB®, Tikomed AB, Viken, Sweden, WO 2016/076780). Frozen serum samples were thawed and quantified for IL-6 using the Luminex assay system (Bio-Plex 200 system with Bio-Plex Manager software) according to manufacturer's instructions. After an initial screening visit, patients had weekly dosing of a single LMW-DS (ILB®, Tikomed AB, Viken, Sweden, WO 2016/076780) injection of 1.0 mg/kg body weight in saline into the subcutaneous fat of the lower abdomen with a maximum of 1.5 mL at each injection site.
Statistical analysis was performed using the non-parametric Mann-Whitney U test with p<0.05 considered significant.

human purified monocytes = assay: Stimulated IL-6 release from human purified monocytes (ELISA), Example 2; format: cell-based; details: 24 hours, LMW-DS 60-600 μg/ml, heparin 2.0-20 μg/ml, dexamethasone 3.0 μM, n=10 donors; for LPS-stimulated IL-6 release into the cell culture supernatant: LPS (0.01 ng/ml); for peptidoglycan-stimulated IL-6 release into the cell culture supernatant: peptidoglycan (30 ng/ml)
Experimental: Peripheral blood mononuclear cells (PBMC) were isolated from healthy donors through Ficoll-Paque PLUS (GE Healthcare; 11778538) density centrifugation. Monocytes were purified using the EasySep™ human monocyte enrichment kit (StemCell) that purifies monocytes ‘untouched’ to maintain their phenotype.
Monocytes were cultured in the absence (unstimulated PBS vehicle controls) or presence of stimulation (LPS or peptidoglycan) in the absence (vehicle) or presence of LMW-DS (ILB®, Tikomed AB, Viken, Sweden, WO 2016/076780; three concentrations: 600 μg/ml, 200 μg/ml and 60 μg/ml), heparin (2.0, 6.0 or 20 μg/ml; equivalent to 0.406, 1.218 and 4.06 units/ml; Sigma Aldrich) or dexamethasone (3.0 μM; Sigma Aldrich) for 24 hours at 37° C., 5% CO2. Following centrifugation, cell culture supernatants were removed and stored at −20° C. awaiting analysis for IL-6 by ELISA. Levels of IL-6 were quantified in the supernatant by ELISA (R&D systems) according to manufacturer's instructions.

[3] = LPS (0.01 ng/ml) stimulated PBMC, 60, 200, 600 μg/ml
[4] = LPS (0.01 ng/ml) stimulated PBMC, 60, 200, 600 μg/ml, listed as Dextran sulfate
[5] = PHA-L (1.0 μg/ml) stimulated PBMC, 60, 200, 600 μg/ml
[6] = pokeweed mitogen (1.0 μg/ml) stimulated PBMC, 60, 200, 600 μg/ml
[7] = pokeweed mitogen (1.0 μg/ml) stimulated PBMC, 60, 200, 600 μg/ml, listed as dextran sulfate
[8] = Cytostim stimulated PBMC, listed as Dextran sulfate
[9] = LPS (0.01 ng/ml) stimulated PBMC
[10] = LPS (0.01 ng/ml) stimulated PBMC, listed as Dextran sulfate
[11] = PHA-L (1.0 μg/ml) stimulated PBMC
[12] = PHA-L (1.0 μg/ml) stimulated PBMC, listed as Dextran sulfate
[13] = peptidoglycan (30 ng/ml) stimulated PBMC
[14] = pokeweed mitogen (1.0 μg/ml) stimulated PBMC

Substance: infliximab
- half-life [1]: around 14 days

Substance: low molecular weight dextran sulfate [LMW-DS]
- IL-6 release ([2]; CpG (0.2 μM)+IL-15 (15 ng/ml) stimulated PBMC): not generally impacted
- IL-6 release ([2]; Cytostim (10 μl/ml) stimulated PBMC): not generally impacted
- IL-6 release into the cell culture supernatant [2, 3]: concentration dependent and statistically significant reduction
- IL-6 release into the cell culture supernatant [2, 4]: concentration dependent reduction
- IL-6 release into the cell culture supernatant ([2]; LPS (0.01 ng/ml) stimulated PBMC, 60, 200, 600 μg/ml, listed as dextran sulfate): suppress IL-6 cytokine production
- IL-6 release [2, 5]: inhibited significantly in a concentration-dependent manner
- IL-6 release ([2]; higher concentration CpG (1.0 μM)+IL-15 (15 ng/ml) stimulated PBMC): no general impact
- IL-6 release ([2]; higher concentration CpG (1.0 μM)+IL-15 (15 ng/ml) stimulated PBMC, listed as dextran sulfate): not significantly affecting
- IL-6 release ([2]; higher concentration Cytostim (30 μl/ml) stimulated PBMC): no general impact
- IL-6 release ([2]; higher concentration Cytostim (30 μl/ml) stimulated PBMC, listed as dextran sulfate): not significantly affecting
- IL-6 release into the cell culture supernatant ([2]; peptidoglycan (30 ng/ml) stimulated PBMC, 60, 200, 600 μg/ml): little evidence of LMW-DS, even at the highest concentration tested, of causing a general reduction in IL-6 release
- IL-6 release into the cell culture supernatant ([2]; peptidoglycan (30 ng/ml) stimulated PBMC, 60, 200, 600 μg/ml, listed as dextran sulfate): not significantly affecting
- IL-6 release [2, 6]: not impacted generally
- IL-6 release [2, 7]: not significantly affecting
- secretion of IL-8 (human PBMCs; CpG+IL-15 stimulated PBMC): little impact
- IL-10 secretion (human PBMCs; Cytostim stimulated PBMC, 60, 200, 600 μg/ml): concentration dependent large reduction
- IL-10 secretion (human PBMCs; Cytostim stimulated PBMC, 60, 200, 600 μg/ml, listed as Dextran sulfate): reduction
- secretion of IFNγ (human PBMCs; Cytostim stimulated PBMC): small reductions
- secretion of IL-1β (human PBMCs; Cytostim stimulated PBMC): small reductions
- secretion of IL-8 (human PBMCs; Cytostim stimulated PBMC): small reductions
- secretion of TNFα (human PBMCs; Cytostim stimulated PBMC): small reductions
- secretion of IFNγ (human PBMCs; [8]): reduction
- secretion of IL-8 (human PBMCs; [8]): reduction
- secretion of TNFα (human PBMCs; [8]): reduction
- secretion of IFNγ (human PBMCs; [3]): concentration dependent but small reduction
- secretion of IL-10 (human PBMCs; [3]): concentration dependent but small reduction
- secretion of IFNγ (human PBMCs; [4]): reduction
- secretion of IL-10 (human PBMCs; [4]): reduction
- stimulated secretion of IL-1β (human PBMCs; [9]): modest reduction
- stimulated secretion of IL-8 (human PBMCs; [9]): modest reduction
- stimulated secretion of TNFα (human PBMCs; [9]): modest reduction
- stimulated secretion of IL-1β (human PBMCs; [10]): reduction
- stimulated secretion of IL-8 (human PBMCs; [10]): reduction
- stimulated secretion of TNFα (human PBMCs; [10]): reduction
- IL-10 secretion (human PBMCs; [5]): large, concentration dependent decrease
- IL-10 secretion (human PBMCs; PHA-L (1.0 μg/ml) stimulated PBMC, 60, 200, 600 μg/ml, listed as Dextran sulfate): reduction
- stimulated release of IFNγ (human PBMCs; [11]): small decreases
- stimulated release of IL-8 (human PBMCs; [11]): small decreases
- stimulated release of TNFα (human PBMCs; [11]): small decreases
- stimulated release of IFNγ (human PBMCs; [12]): reduction
- stimulated release of TNFα (human PBMCs; [12]): reduction
- IL-1β secretion (human PBMCs; [13]): associated increases
- TNFα secretion (human PBMCs; [13]): associated increases
- cytokine release (IL-8) (human PBMCs; peptidoglycan (30 ng/ml) stimulated PBMC, up to highest concentration tested): little evidence of LMW-DS, even at the highest concentration tested, of causing a general reduction in cytokine release
- IL-10 secretion (human PBMCs; [6]): concentration-dependent decrease
- IL-10 secretion (human PBMCs; [7]): reduction
- secretion of IFNγ (human PBMCs; [14]): not impacted generally
- secretion of IL-1β (human PBMCs; [14]): not impacted generally
- secretion of IL-8 (human PBMCs; [14]): not impacted generally
- secretion of TNFα (human PBMCs; [14]): not impacted generally
- serum IL-6 levels as % of Pre-LMW-DS levels (IL-6): statistically significant decrease
- LPS-stimulated IL-6 release into the cell culture supernatant (human purified monocytes): concentration dependent statistically significant inhibition
- LPS-stimulated IL-6 release into the cell culture supernatant (human purified monocytes; listed as Dextran sulfate): concentration dependent reduction
- peptidoglycan-stimulated IL-6 release into the cell culture supernatant (human purified monocytes): concentration dependent statistically significant increase

Substance: certolizumab
- half-life [1]: around 14 days

Substance: heparin [reference compound]
- LPS-stimulated IL-6 release into the cell culture supernatant (human purified monocytes): concentration dependent statistically significant enhancement; also recorded: did not significantly suppress IL-6 levels in LPS activated monocytes but rather increased the levels
- peptidoglycan-stimulated IL-6 release into the cell culture supernatant (human purified monocytes): enhancement was mirrored to some extent by heparin although the trend did not reach statistical significance

Substance: adalimumab
- half-life [1]: around 14 days
